Test results published in ChEMBL document CHEMBL4340503, “Antiviral activities of Janus-type nucleosides and their related oxime-intermediates” (Bioorg Med Chem, 2019).
≈ marks a conversion by molar mass, not a printed value.

How the values were obtained:
[1] = Cytotoxicity against African green monkey Vero cells infected with Herpes simplex virus 1 after 72 hrs by MTT assay; type: cell-based; settings: chlorocebus sabaeus, read-out: TC50
[2] = system: Human alphaherpesvirus 1; test: Antiviral activity against Herpes simplex virus 1 infected in African green monkey Vero cells assessed as inhibition of virus-induced cytopathogenic effect by microscopic analysis; type: functional, organism-based; settings: Human alphaherpesvirus 1, Vero
[3] = system: Influenza A virus H3N2; test: Antiviral activity against Influenza A virus H3N2 infected in African green monkey Vero cells assessed as inhibition of virus-induced cytopathogenic effect by microscopic analysis; type: functional, organism-based
[4] = (§1) Selectivity index, ratio of TC50 against African green monkey Vero cells infected with Herpes simplex virus 1 after 72 hrs by MTT assay to IC50 against Herpes simplex virus 1 infected in African green monkey Vero cells assessed as inhibition of virus-induced cytopathogenic effect by microscopic analysis; type: toxicity; settings: read-out: Selectivity Index
[5] = as §1, with “Influenza A” for “Herpes simplex”, “H3N2” for “1”; type: toxicity; settings: read-out: Selectivity Index
[6] = Selectivity index, ratio of TC50 against African green monkey Vero cells infected with Human papillomavirus after 72 hrs by MTT assay to IC50 against Human papillomavirus infected in African green monkey Vero cells assessed as inhibition of virus-induced cytopathogenic effect by microscopic analysis; type: toxicity; settings: read-out: Selectivity Index
[7] = Selectivity index, ratio of TC50 against African green monkey Vero cells infected with Hepatitis C virus after 72 hrs by MTT assay to IC50 against Hepatitis C virus infected in African green monkey Vero cells assessed as inhibition of virus-induced cytopathogenic effect by microscopic analysis; type: toxicity; settings: read-out: Selectivity Index
[8] = Cytotoxicity against African green monkey Vero cells infected with Herpes simplex virus 2 after 72 hrs by MTT assay; type: cell-based; settings: chlorocebus sabaeus, read-out: TC50
[9] = system: Human alphaherpesvirus 2; test: Antiviral activity against Herpes simplex virus 2 infected in African green monkey Vero cells assessed as inhibition of virus-induced cytopathogenic effect by microscopic analysis; type: functional, organism-based; settings: Human alphaherpesvirus 2, Vero
[10] = Selectivity index, ratio of TC50 against African green monkey Vero cells infected with Hepatitis B virus after 72 hrs by MTT assay to IC50 against Hepatitis B virus infected in African green monkey Vero cells assessed as inhibition of virus-induced cytopathogenic effect by microscopic analysis; type: toxicity; settings: read-out: Selectivity Index
[11] = as §1, with “2” for “1”; type: toxicity; settings: read-out: Selectivity Index
[12] = system: Coxsackievirus B3; test: Antiviral activity against Coxsackievirus B3 infected in African green monkey Vero cells assessed as inhibition of virus-induced cytopathogenic effect by microscopic analysis; type: functional, organism-based; settings: Enterovirus B
[13] = system: Hepatitis C virus; test: Antiviral activity against Hepatitis C virus infected in African green monkey Vero cells assessed as inhibition of virus-induced cytopathogenic effect by microscopic analysis; type: functional, organism-based, Hepacivirus hominis
[14] = Cytotoxicity against African green monkey Vero cells infected with Hepatitis B virus after 72 hrs by MTT assay; type: cell-based; settings: chlorocebus sabaeus, read-out: TC50
[15] = Cytotoxicity against African green monkey Vero cells infected with Hepatitis C virus after 72 hrs by MTT assay; type: cell-based; settings: chlorocebus sabaeus, read-out: TC50
[16] = Cytotoxicity against African green monkey Vero cells infected with Influenza A virus H3N2 after 72 hrs by MTT assay; type: cell-based; settings: chlorocebus sabaeus, read-out: TC50
[17] = system: Human papillomavirus; test: Antiviral activity against Human papillomavirus infected in African green monkey Vero cells assessed as inhibition of virus-induced cytopathogenic effect by microscopic analysis; type: functional, organism-based
[18] = Cytotoxicity against African green monkey Vero cells infected with Coxsackievirus B3 after 72 hrs by MTT assay; type: cell-based; settings: chlorocebus sabaeus, read-out: TC50
[19] = Cytotoxicity against African green monkey Vero cells infected with Human papillomavirus after 72 hrs by MTT assay; type: cell-based; settings: chlorocebus sabaeus, read-out: TC50
[20] = Selectivity index, ratio of TC50 against African green monkey Vero cells infected with Coxsackievirus B3 after 72 hrs by MTT assay to IC50 against Coxsackievirus B3 infected in African green monkey Vero cells assessed as inhibition of virus-induced cytopathogenic effect by microscopic analysis; type: toxicity; settings: read-out: Selectivity Index

SMILES	CC50 at 72 h [1] [µg/mL]	IC50 [2] [µg/mL]	IC50 [3] [µg/mL]	selectivity ratio at 72 h [4]	other results
Nc1ncn([C@@H]2O[C@H](CO)[C@@H](O)[C@@H]2O)c2nc(=O)[nH]c(=O)c1-2	1.78 (≈ 5.72 µM)	> 0.59	> 0.46	–	–
O/N=C/c1c(Cl)ncnc1NCc1ccc(F)cc1	12.8 (≈ 45.7 µM)	> 2.47	–	–	–
COc1ccccc1CNc1ncnc(Cl)c1/C=N\O	10.7 (≈ 36.5 µM)	4.79 (≈ 16.4 µM)	–	2.23	–
COc1cccc(CNc2ncnc(Cl)c2/C=N/O)c1	2.31 (≈ 7.89 µM)	0.48 (≈ 1.64 µM)	–	4.81	–
CO/N=C/c1c(Cl)ncnc1NCc1ccccc1OC	38.5 (≈ 126 µM)	4.28 (≈ 14 µM)	–	9	–
COc1ccc(CNc2ncnc(Cl)c2/C=N/O)cc1	2.47 (≈ 8.44 µM)	0.35 (≈ 1.2 µM)	–	7.06	–
Cc1ccc(CNc2ncnc(Cl)c2/C=N/O)cc1	1.11 (≈ 4.01 µM)	0.21 (≈ 0.759 µM)	–	5.29	–
Nc1ncnc2c1c(=O)[nH]c(=O)n2[C@@H]1O[C@H](CO)[C@@H](O)[C@@H]1O	> 250	> 83.3	> 333	–	–
O/N=C/c1c(Cl)ncnc1NCc1ccc(Br)cc1	12.8 (≈ 37.6 µM)	0.82 (≈ 2.4 µM)	–	15.7	–
CC(C)(C)c1ccc(CNc2ncnc(Cl)c2/C=N\O)cc1	1.43 (≈ 4.49 µM)	0.48 (≈ 1.51 µM)	–	2.97	–
Nc1nc(=O)n([C@@H]2O[C@H](CO)[C@@H](O)[C@H]2O)c2nc[nH]c(=O)c12	2.97 (≈ 9.54 µM)	> 0.79	> 1.37	–	–
C[C@H]1O[C@@H](n2cnc(N)c3c(=O)[nH]c(=O)nc2-3)[C@H](O)[C@@H]1O	500 (≈ 1690 µM)	167 (≈ 564 µM)	167 (≈ 564 µM)	3	selectivity ratio at 72 h [5]: 3
COc1ccc(Cn2c(=O)nc(N)c3c(=O)[nH]c(N)nc32)cc1	18.5 (≈ 58.9 µM)	> 6.17	> 55.6	–	–
COc1ccccc1CNc1ncnc(Cl)c1/C=N/O	0.86 (≈ 2.94 µM)	0.04 (≈ 0.137 µM)	0.27 (≈ 0.922 µM)	21.5	selectivity ratio at 72 h [6]: 1.71; selectivity ratio at 72 h [7]: 27.2; CC50 at 72 h [8]: 1.11 µg/mL (≈ 3.79 µM); selectivity ratio at 72 h [5]: 4.41; IC50 [9]: 0.29 µg/mL (≈ 0.991 µM); selectivity ratio at 72 h [10]: 25.3; selectivity ratio at 72 h [11]: 3.83; IC50 [12]: 0.05 µg/mL (≈ 0.171 µM); IC50 [13]: 1.19 µg/mL (≈ 4.07 µM); CC50 at 72 h [14]: 0.063 µg/mL (≈ 0.215 µM); CC50 at 72 h [15]: 32.4 µg/mL (≈ 111 µM); CC50 at 72 h [16]: 1.19 µg/mL (≈ 4.07 µM); IC50 [17]: 7.9 µg/mL (≈ 27 µM); CC50 at 72 h [18]: 0.86 µg/mL (≈ 2.94 µM); CC50 at 72 h [19]: 13.5 µg/mL (≈ 46.1 µM); selectivity ratio at 72 h [20]: 17.2
Nc1ncn([C@H]2C[C@H](O)[C@@H](CO)O2)c2nc(=O)[nH]c(=O)c1-2	577 (≈ 1960 µM)	> 333	> 111	–	–
C[C@H]1O[C@@H](n2c(=O)nc(N)c3c(=O)[nH]c(N)nc32)[C@H](O)[C@@H]1O	8.56 (≈ 27.6 µM)	2.08 (≈ 6.7 µM)	> 4.12	4.1	–
Nc1ncn([C@H]2O[C@@H](CO)[C@H](O)[C@@H]2O)c2nc(=O)[nH]c(=O)c1-2	577 (≈ 1850 µM)	333 (≈ 1070 µM)	> 333	1.7	–
